Experimental data as given in PMC12827894, “Structure-guided design of picomolar-level macrocyclic TRPC5 channel inhibitors with antidepressant activity” (Acta Pharmaceutica Sinica. B, 2025).
Read-outs that look alike come from different tables or passages of the source.

Legend:
hERG = hERG (Homo sapiens, UniProt Q12809); type: cell-based; parameters: purchased ICE Bioscience ICESTP SafetyOne44 Panel
IKs = target: T1, IKs (Homo sapiens, UniProt P51787); assay: SafetyOne44 panel ion channels: IKs; type: cell-based; conditions: 5 μmol/L
T1 construct: ICE Bioscience ICESTP SafetyOne44 Panel

TRPC1/4 = target: T2, TRPC1/4 (Homo sapiens, UniProt P48995+Q9UBN4); assay: Whole-cell patch-clamp, TRPC1/4 heteromer, 100 nmol/L EA; type: cell-based; conditions: read-out: IC50, TRPC1/4
T2 construct: expressed in transfected cells; host or cells: HEK293T
Description: (§1) Given that TRPC4 and TRPC5 are highly similar and often form heteromeric with TRPC1, we evaluated JDIC-127's activity on TRPC4, TRPC1/4, and TRPC1/5 using whole-cell patch-clamp recordings under agonist stimulation with 100 nmol/L EA in HEK293T cells. […].
(§2) For electrophysiological activity testing of compounds against TRPC4 and TRPC5, stably expressed TRPC5 or TRPC4 cells were used for whole-cell patch-clamp recordings, employing a HEKA EPC10 amplifier and […] software (https://www.heka.com/downloads/downloads_main.html#down_patchmaster). Prior to recording, cells were induced with 1 μg/mL tetracycline for 24 h. For TRPC1/4 or TRPC1/5 heteromers, plasmids TRPC1 and TRPC5 or TRPC1 and TRPC4 were co-transfected into HEK293T cells. After 48 to 72 h of transfection, testing was performed. A 1-s ramp protocol from −100 to +100 mV at 0.2 Hz was applied, as previously described. The extracellular solution consisted of 140 mmol/L NaCl, 1 mmol/L MgCl2, 2 mmol/L CaCl2, 10 mmol/L Hepes, 5 mmol/L KCl, and 10 mmol/L D-glucose, with pH adjusted to 7.4 using NaOH. […] The half-maximal inhibitory concentration (IC50) of drugs was determined by recording currents at a +100 mV pulse and analyzing current amplitudes at varying drug concentrations, with IC50 values calculated using the Hill equation. […]

ETA = target: T3, ETA (Homo sapiens, UniProt P25101); assay: SafetyOne44 panel: ETA; type: cell-based; conditions: ETA, 10 μmol/L
T3 construct: purchased ICE Bioscience ICESTP™ SafetyOne44 Panel
T3 sequence (P25101 21-427): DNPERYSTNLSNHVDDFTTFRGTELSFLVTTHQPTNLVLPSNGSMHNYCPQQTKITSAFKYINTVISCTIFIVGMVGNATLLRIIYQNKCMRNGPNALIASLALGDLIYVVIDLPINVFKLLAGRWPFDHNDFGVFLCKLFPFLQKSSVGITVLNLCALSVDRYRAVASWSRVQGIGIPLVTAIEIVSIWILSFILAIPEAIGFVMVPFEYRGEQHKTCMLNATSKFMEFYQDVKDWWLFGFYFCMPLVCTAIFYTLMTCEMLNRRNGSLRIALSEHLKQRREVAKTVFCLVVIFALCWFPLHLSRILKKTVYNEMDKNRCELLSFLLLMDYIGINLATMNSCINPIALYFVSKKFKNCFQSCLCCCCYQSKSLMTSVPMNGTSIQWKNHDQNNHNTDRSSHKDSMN

[1] = test system: 44 clinically safety-related targets
AR = target: T4, AR (Homo sapiens, UniProt P10275); assay: cell-based; type: cell-based
T4 construct: purchased ICE Bioscience ICESTP™ SafetyOne44 Panel

H1 [2] = target: T5, H1 (Homo sapiens, UniProt P35367); conditions: H1, agonist mode
C57BL/6 mice [3] = assay: Tail suspension test (TST); type: in vivo
GABAA = type: cell-based
5-HT2B = target: T6, 5-HT2B (Homo sapiens, UniProt P41595); assay: cell-based; type: cell-based; conditions: 5-HT2B, 10 μmol/L
T6 construct: purchased ICE Bioscience ICESTP SafetyOne44 Panel

nAChRα4β2 = target: T7, nAChRα4β2 (Homo sapiens, UniProt P17787+P43681); assay: SafetyOne44 panel ion channels: nAChRα4β2; type: cell-based; conditions: 5 μmol/L
T7 construct: ICE Bioscience ICESTP SafetyOne44 Panel

H1 [4] = target: T5, H1; assay: cell-based; conditions: read-out: Antagonist JDIC-127 @10 μmol/L
TRPV1 = TRPV1 (Homo sapiens, UniProt Q8NER1); assay: Patch-clamp selectivity, TRPV1; type: cell-based; conditions: 10 μmol/L
TRPC4 = target: T8, TRPC4 (Homo sapiens, UniProt Q9UBN4); assay: Whole-cell patch-clamp, TRPC4, 100 nmol/L EA; type: cell-based; conditions: HEK293T
T8 construct: expressed in transfected cells
Description: as §1, §2

C57BL/6 mice [5] = assay: Forced swim test (FST); type: in vivo; conditions: 0.3 or 3 mg/kg p.o., 14 days
α2A = target: T9, α2A (Homo sapiens, UniProt P08913); assay: cell-based; type: cell-based
T9 construct: purchased ICE Bioscience ICESTP SafetyOne44 Panel

NR1/NR2B = target: T10, NR1/NR2B (Homo sapiens, UniProt Q05586+Q13224); assay: SafetyOne44 panel ion channels: NR1/NR2B; type: cell-based; conditions: NR1/NR2B, 5 μmol/L
T10 construct: ICE Bioscience ICESTP SafetyOne44 Panel

[6] = antagonist mode, read-out: Antagonist JDIC-127 @10 μmol/L
[7] = antagonist mode, 10 μmol/L, read-out: Antagonist JDIC-127 @10 μmol/L

T9 sequence (P08913 whole entry): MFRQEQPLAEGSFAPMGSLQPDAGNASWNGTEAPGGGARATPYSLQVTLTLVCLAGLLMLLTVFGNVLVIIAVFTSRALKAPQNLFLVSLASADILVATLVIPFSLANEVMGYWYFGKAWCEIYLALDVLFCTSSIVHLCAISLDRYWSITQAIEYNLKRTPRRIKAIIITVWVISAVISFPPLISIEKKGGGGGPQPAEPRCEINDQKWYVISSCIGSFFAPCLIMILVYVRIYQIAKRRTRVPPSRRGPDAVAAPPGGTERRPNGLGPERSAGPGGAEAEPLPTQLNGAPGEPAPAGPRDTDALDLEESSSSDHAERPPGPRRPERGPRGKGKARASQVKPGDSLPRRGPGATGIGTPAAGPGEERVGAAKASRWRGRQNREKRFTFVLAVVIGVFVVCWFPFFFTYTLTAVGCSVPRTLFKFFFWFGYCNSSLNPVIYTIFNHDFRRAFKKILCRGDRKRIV
T4 sequence (P10275 whole entry): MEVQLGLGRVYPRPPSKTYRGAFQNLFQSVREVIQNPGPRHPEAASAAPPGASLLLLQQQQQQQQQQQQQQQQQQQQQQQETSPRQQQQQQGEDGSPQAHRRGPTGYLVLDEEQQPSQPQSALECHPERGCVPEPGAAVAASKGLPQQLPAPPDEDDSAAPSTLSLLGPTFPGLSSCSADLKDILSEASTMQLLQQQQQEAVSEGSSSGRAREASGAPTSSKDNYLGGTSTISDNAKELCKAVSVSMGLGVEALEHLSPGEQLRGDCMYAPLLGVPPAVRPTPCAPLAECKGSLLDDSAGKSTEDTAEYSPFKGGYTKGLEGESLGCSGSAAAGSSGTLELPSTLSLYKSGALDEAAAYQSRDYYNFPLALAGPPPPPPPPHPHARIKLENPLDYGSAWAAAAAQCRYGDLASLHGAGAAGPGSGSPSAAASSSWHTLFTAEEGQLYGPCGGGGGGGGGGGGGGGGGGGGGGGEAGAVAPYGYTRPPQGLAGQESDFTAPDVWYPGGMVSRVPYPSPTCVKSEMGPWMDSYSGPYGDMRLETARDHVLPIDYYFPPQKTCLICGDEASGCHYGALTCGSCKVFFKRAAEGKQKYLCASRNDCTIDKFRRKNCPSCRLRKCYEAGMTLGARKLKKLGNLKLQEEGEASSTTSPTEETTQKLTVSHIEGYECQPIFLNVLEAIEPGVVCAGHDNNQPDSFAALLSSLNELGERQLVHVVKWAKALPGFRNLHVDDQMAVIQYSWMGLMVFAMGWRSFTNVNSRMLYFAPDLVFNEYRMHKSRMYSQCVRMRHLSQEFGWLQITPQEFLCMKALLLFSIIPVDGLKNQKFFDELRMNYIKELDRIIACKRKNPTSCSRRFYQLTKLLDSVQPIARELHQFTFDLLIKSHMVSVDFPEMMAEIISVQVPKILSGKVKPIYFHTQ
T10 sequence (Q13224 27-1484, other chains not shown): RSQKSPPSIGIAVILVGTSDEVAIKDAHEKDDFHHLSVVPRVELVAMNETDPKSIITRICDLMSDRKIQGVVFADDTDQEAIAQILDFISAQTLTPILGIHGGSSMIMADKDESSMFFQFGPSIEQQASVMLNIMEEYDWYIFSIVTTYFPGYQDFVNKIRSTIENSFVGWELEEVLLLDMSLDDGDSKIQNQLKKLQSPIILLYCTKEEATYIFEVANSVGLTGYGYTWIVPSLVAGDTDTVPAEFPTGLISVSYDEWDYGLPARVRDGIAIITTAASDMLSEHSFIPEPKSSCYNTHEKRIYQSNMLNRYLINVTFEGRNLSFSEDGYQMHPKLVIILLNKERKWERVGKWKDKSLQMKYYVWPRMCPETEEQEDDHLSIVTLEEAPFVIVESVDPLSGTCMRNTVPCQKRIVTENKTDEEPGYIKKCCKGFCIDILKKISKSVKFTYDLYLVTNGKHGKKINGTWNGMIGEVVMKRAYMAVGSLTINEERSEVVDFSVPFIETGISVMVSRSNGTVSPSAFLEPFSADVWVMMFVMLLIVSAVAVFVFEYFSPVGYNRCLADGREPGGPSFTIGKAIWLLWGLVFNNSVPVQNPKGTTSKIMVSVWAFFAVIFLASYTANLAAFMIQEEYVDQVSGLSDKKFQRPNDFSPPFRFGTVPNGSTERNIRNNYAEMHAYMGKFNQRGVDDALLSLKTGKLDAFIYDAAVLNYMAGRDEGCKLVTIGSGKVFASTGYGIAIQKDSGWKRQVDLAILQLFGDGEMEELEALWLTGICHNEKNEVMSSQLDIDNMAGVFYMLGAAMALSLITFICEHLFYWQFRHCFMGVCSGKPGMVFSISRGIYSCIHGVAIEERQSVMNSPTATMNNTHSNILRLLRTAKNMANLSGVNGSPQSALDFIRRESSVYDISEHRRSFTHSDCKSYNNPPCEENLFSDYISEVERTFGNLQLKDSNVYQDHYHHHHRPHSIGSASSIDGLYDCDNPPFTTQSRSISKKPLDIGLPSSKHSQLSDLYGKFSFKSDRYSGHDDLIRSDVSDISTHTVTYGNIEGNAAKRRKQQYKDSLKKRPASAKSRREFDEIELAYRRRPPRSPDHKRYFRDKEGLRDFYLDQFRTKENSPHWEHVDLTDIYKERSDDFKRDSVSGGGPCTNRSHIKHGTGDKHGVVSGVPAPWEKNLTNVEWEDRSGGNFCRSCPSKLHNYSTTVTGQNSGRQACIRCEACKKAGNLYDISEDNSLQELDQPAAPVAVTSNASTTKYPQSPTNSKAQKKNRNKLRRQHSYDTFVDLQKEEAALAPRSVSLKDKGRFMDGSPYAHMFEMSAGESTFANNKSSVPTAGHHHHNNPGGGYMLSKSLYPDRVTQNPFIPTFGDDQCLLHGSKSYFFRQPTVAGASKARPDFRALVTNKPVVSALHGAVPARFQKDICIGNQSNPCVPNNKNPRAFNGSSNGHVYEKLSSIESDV
T7 sequence (P43681 29-627 limits assumed): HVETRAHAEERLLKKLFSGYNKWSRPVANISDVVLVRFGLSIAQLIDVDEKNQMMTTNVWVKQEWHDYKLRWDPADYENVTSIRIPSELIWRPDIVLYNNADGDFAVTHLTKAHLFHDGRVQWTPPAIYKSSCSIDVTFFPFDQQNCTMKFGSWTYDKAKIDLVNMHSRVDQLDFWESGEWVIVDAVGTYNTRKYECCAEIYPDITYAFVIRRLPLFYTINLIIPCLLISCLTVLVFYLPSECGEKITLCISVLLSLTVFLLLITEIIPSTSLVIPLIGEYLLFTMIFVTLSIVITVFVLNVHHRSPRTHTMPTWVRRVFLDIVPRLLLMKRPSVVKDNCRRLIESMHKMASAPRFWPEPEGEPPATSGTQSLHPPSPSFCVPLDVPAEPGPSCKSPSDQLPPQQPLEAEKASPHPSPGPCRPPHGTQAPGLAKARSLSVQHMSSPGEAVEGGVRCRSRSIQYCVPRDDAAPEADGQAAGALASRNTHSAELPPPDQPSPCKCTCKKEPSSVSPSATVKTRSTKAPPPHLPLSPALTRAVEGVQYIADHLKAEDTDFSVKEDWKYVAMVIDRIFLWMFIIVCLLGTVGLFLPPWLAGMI
T7 sequence (P17787 26-502): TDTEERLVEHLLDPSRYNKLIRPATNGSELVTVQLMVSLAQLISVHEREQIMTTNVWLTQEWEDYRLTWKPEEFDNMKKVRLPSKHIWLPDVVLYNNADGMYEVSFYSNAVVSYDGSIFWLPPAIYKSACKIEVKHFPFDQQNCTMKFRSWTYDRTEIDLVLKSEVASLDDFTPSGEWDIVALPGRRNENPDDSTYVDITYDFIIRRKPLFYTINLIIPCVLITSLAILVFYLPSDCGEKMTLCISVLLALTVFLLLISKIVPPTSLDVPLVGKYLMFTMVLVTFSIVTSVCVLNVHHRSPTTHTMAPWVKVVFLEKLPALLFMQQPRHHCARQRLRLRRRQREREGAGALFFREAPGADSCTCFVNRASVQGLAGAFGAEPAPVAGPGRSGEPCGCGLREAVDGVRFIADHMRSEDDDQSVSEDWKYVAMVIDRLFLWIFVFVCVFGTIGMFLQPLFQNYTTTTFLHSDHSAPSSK
T6 sequence (P41595 whole entry): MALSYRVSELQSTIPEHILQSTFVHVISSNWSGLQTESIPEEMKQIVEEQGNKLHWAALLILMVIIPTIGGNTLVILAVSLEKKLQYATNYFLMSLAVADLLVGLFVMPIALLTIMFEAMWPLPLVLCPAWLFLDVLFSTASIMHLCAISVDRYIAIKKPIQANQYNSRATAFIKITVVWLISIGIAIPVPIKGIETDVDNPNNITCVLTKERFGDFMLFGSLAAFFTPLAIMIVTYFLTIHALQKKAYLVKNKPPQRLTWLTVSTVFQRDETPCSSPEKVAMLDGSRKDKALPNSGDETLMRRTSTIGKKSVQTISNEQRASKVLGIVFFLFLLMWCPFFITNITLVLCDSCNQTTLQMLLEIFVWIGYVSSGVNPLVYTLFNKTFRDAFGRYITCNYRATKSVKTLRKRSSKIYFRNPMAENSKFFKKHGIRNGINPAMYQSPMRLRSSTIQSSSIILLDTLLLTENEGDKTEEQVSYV
T5 sequence (P35367 whole entry): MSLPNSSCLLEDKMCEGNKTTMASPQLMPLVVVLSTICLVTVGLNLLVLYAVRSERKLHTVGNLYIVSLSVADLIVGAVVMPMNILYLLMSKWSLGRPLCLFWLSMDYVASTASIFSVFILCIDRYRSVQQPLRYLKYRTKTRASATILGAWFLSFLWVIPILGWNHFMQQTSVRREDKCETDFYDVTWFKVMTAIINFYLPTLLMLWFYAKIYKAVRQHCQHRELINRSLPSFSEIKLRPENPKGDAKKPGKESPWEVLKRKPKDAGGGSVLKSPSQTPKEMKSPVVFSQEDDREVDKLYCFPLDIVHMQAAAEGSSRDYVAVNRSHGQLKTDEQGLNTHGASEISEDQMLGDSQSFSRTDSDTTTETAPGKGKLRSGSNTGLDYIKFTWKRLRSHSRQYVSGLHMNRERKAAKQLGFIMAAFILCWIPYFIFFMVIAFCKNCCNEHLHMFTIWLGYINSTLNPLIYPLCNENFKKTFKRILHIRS

## O=c1c2c3nc(n2Cc2ccc(Cl)cc2)Oc2ccc(F)c(c2)OCCCCCCn3c(=O)n1CCCO [JDIC-127]
hERG
  Antagonist JDIC-127 @5 μmol/L: 19.40%
IKs
  Antagonist JDIC-127 @5 μmol/L: 22.77%
TRPC1/4
  IC50: 1.86 nM
ETA; agonist mode
  Agonist JDIC-127 @10 μmol/L: 1.45%
ETA; [6]
  inhibition at 10 µM: 2.63%
[1]
  effect on the 44 safety targets: no significant inhibitory or stimulatory effects
AR; agonist mode
  Agonist JDIC-127 @10 μmol/L: 0.06%
AR; [7]
  inhibition at 10 µM: -7.02%
H1 [2]
  Agonist JDIC-127 @10 μmol/L: 3.21%
C57BL/6 mice [3]; 0.3 mg/kg p.o. vs 10 mg/kg desipramine, 3 mg/kg HC-070
  efficacy in TST relative to reference drugs: comparable efficacy to desipramine and HC-070
C57BL/6 mice [3]; 0.3 or 3 mg/kg p.o., 60 min prior to testing
  immobility time in TST: significantly reduced
GABAA; agonist mode
  Agonist JDIC-127 @ 5 μmol/L: 0.74%
GABAA; antagonist mode
  Antagonist JDIC-127 @5 μmol/L: 26.35%
C57BL/6, 2 mpk, i.v.
  AUC0–t: 496 h∗ng/mL
  AUC0–∞: 499 h∗ng/mL
C57BL/6, 10 mpk, p.o.
  AUC0–t: 187 h∗ng/mL
  AUC0–∞: 193 h∗ng/mL
  CL: 865 mL/min/kg
  Vd: 107 L/kg
5-HT2B; agonist mode
  Agonist JDIC-127 @10 μmol/L: 0.67%
5-HT2B; [6]
  inhibition at 10 µM: -0.45%
nAChRα4β2; nAChRα4β2, agonist mode
  Agonist JDIC-127 @ 5 μmol/L: 0.97%
nAChRα4β2; nAChRα4β2, antagonist mode
  Antagonist JDIC-127 @5 μmol/L: 2.92%
H1 [4]
  inhibition at 10 µM: -3.39%
TRPV1
  inhibition at 10 µM: < 33%
TRPC4
  IC50: 0.001 nM
C57BL/6 mice [5]
  immobility time in FST: significantly reduced
α2A; agonist mode
  Agonist JDIC-127 @10 μmol/L: –1.14%
α2A; [7]
  inhibition at 10 µM: -8.62%
NR1/NR2B; agonist mode
  Agonist JDIC-127 @ 5 μmol/L: 1.53%
NR1/NR2B; antagonist mode
  Antagonist JDIC-127 @5 μmol/L: 17.19%
